Like-named read-outs stand apart in the source and are kept apart here.
How the values were obtained:
Assay type in all cases: cell-based
[1] = tested on: ALL-SIL; assay: Cellular proliferation assay; settings: T-ALL, TLX1 overexpression
Procedure: (§1) All suspension cells were plated (96-well) in triplicate at 5,000-30,000 cells per well for testing (n=3). Viable cell number was estimated after 3, 7 and 10 days by counting viable cells from one vehicle well, generating a cell dilution series, transferring […] per well in duplicate to a 384-well plate, and performing a linear regression to CellTiter-Glo (Promega) response (SPECTRAmax M3, Molecular Devices). Cells from all wells were also fourfold diluted in media and transferred in duplicate for CellTiter-Glo measurement. On days 3 and 7, an equal volume for all wells was split-back with fresh media and compound, such that the resulting cell density for the vehicle well matched the initial seeding density. For days 7 and 10, estimated cell number represents the split-adjusted theoretical cell number. HCT116 were plated (96-well) in triplicate at 250 cells per well. Cells were incubated in the presence of vehicle, 1 μM paclitaxel, or compound. On day 7, CellTiter-Blue (Promega) response was measured and values were normalized to vehicle (100% growth) and paclitaxel (0% growth). For growth assays with inhibitors, n=3 for each concentration with two independent experiments.

[2] = tested on: ARH-77; assay: Cellular proliferation assay; settings: MM/PCL
Procedure: as §1

[3] = tested on: CMK-86; assay: Cellular proliferation assay
Procedure: as §1

[4] = tested on: GRANTA 519; assay: Cellular proliferation assay; settings: Mantle Cell Lymphoma
Procedure: as §1

[5] = tested on: HCT116; assay: Cellular proliferation assay; settings: Colorectal, β-catenin
Procedure: as §1

[6] = tested on: HEL; assay: Cellular proliferation assay
Procedure: as §1

[7] = tested on: HL-60; assay: Cellular proliferation assay; settings: AML/APL
Procedure: as §1

[8] = tested on: JeKo-1; assay: Cellular proliferation assay; settings: Mantle Cell Lymphoma
Procedure: as §1

[9] = tested on: Jurkat; assay: Cellular proliferation assay; settings: T-ALL
Procedure: as §1

[10] = tested on: K562; assay: Cellular proliferation assay
Procedure: as §1

[11] = tested on: Kasumi-1; assay: Cellular proliferation assay; settings: AML, RUNX1-RUNX1T1
Procedure: as §1

[12] = tested on: ME-1; assay: Cellular proliferation assay; settings: ME-1 (CBFB-MYH11); 10-day treatment; read-out: G150 after 10 days of treatment
Procedure: as §1

[13] = tested on: MEG-01; assay: Cellular proliferation assay
Procedure: as §1

[14] = tested on: MKPL-1; assay: Cellular proliferation assay; settings: MKPL-1 (RBM6-CSF1R), adult non-DS-AMKL; 10-day treatment; read-out: G150 after 10 days of treatment
Procedure: as §1

[15] = tested on: MM1.S; assay: Cellular proliferation assay; settings: MM
Procedure: as §1

[16] = tested on: MOLM-14; assay: Cellular proliferation assay
Procedure: as §1

[17] = tested on: MOLM-16; assay: Cellular proliferation assay; settings: AMkL < 1
Procedure: as §1

[18] = tested on: MV4; 11; assay: Cellular proliferation assay
Procedure: as §1

[19] = tested on: NB4; assay: Cellular proliferation assay; settings: AML/APL, PML-RARA
Procedure: as §1

[20] = tested on: OCI-LY1; assay: Cellular proliferation assay; settings: DLBCL
Procedure: as §1

[21] = tested on: REH; assay: Cellular proliferation assay; settings: pre B-ALL, ETV6-RUNX1
Procedure: as §1

[22] = tested on: RS4; 11; assay: Cellular proliferation assay; settings: B-ALL, MLL-AF4
Procedure: as §1

[23] = tested on: SET-2; assay: Cellular proliferation assay
Procedure: as §1

[24] = tested on: SKNO-1; assay: Cellular proliferation assay
Procedure: as §1

[25] = tested on: TF-1; assay: Cellular proliferation assay
Procedure: as §1

[26] = tested on: UKE-1; assay: Cellular proliferation assay; settings: AML/MPN, JAK2V617F
Procedure: as §1

[27] = tested on: leukemia cell lines; assay: Cellular proliferation assay; settings: K562 and HEL compared to MEG-01 and SET-2 (BCR-Abl or JAK2V617F)
Procedure: as §1

[28] = tested on: megakaryocytic cell lines; assay: Cellular proliferation assay; settings: read-out: 50% maximal growth inhibitory concentrations (GI50s); 5 out of 5 megakaryocytic cell lines tested
Procedure: as §1

[29] = tested on: RUNX1; assay: RUNX1 recruitment to genomic loci; settings: FIG. 11

## Cortistatin A
[1]
  GI50: 2 nM
[2]
  GI50: 16 nM
[3]; CMK-86 (GATA1s), pediatric DS-AMKL, 10-day treatment, read-out: G150 after 10 days of treatment
  IC50: 8 nM
[3]; CMK-86, AMkL, GATA1s
  GI50: 8 nM
[4]
  GI50: 400 nM
[5]
  GI50: > 1000 nM
[6]; HEL (JAK2V617F), erythroleukemia, 10-day treatment, read-out: G150 after 10 days of treatment
  IC50: > 1000 nM
[6]; HEL, AML/Erythroleukemia, JAK2V617F
  GI50: > 1000 nM
[7]
  GI50: 7 nM
[8]
  GI50: < 1 nM
[9]
  GI50: 155 nM
[10]; K562 (BCR-Abl), erythroleukemia, 10-day treatment, read-out: G150 after 10 days of treatment
  IC50: > 1000 nM
[10]; K562, CML/Erythroleukemia, BCR-ABL
  GI50: > 1000 nM
[11]
  GI50: 95 nM
[12]
  IC50: 1 nM
[13]; MEG-01 (BCR-AB1, GAGA1s), adult non-DS-AMKL, 10-day treatment, read-out: G150 after 10 days of treatment
  IC50: 9 nM
[13]; MEG-01, CML/AMkL, BCR-ABL, GATA1s
  GI50: 9 nM
[14]
  IC50: 1 nM
[15]
  GI50: 5 nM
[16]; MOLM-14 (MLL-AF9), 10-day treatment, read-out: G150 after 10 days of treatment
  GI50: 5 nM
[16]; MOLM-14, AML, MLL-AF9, read-out: GI50
  GI50: 5 nM
[17]
  GI50: < 1 nM
[18]; 11 (MLL-AF4), 10-day treatment, read-out: G150 after 10 days of treatment
  IC50: 6 nM
[18]; 11, AML, MLL-AF4
  GI50: 6 nM
[19]
  GI50: > 1000 nM
[20]
  GI50: 37 nM
[21]
  GI50: 1 nM
[22]
  GI50: 3 nM
[23]; SET-2 (JAK2V617F), 10-day treatment, read-out: G150 after 10 days of treatment
  IC50: 4 nM
[23]; SET-2, AMkL/MPN, JAK2V617F
  GI50: 4 nM
[23]; SET-2, FIG. 4
  proliferation, theoretical cell number over time: inhibits the proliferation
[24]; SKNO-1 (RUNX1-RUNX1T1), 10-day treatment, read-out: G150 after 10 days of treatment
  IC50: 1 nM
[24]; SKNO-1, RUNX1-RUNX1T1
  GI50: 1 nM
[25]; TF-1 (EpoR), erythroleukemia, 10-day treatment, read-out: G150 after 10 days of treatment
  IC50: 350 nM
[25]; TF-1, AML/Erythroleukemia, EpoR
  GI50: 350 nM
[26]
  GI50: 7 nM
[27]
  difference in sensitivity, megakaryocytic vs erythroleukemia cell lines containing the same mutations: more than 100 fold
[28]
  IC50: < 10 nM
[29]
  RUNX1 recruitment to loci: recruited

— patent US20180369230A1, “TARGETED SELECTION OF PATIENTS FOR TREATMENT WITH SPECIFIC CORTISTATIN DERIVATIVES” (President and Fellows of Harvard College, priority 2015, published 2018)
